{"source": "patent US7297353B2", "about": "“Use of anemonin for treating aseptic inflammations” (priority 2000, dated 2007)", "key": {"[1]": {"test_system": "pain induced by hot plate", "experiment": "Analgesic test with hot plate", "type": "in vivo, mice", "conditions": "25 mg/kg intraperitoneal", "method": "This experiment included 4 groups of female mice, totaling 64 and each weighed 18-22 g, selected for normal pain reaction with 55° C. hot plate: high concentration group, low concentration group, dolantin group and control group. The route of administration and dosage are the same as described in the test with formalin. Dolantin was intraperitoneal injected and other groups received test medication on left and right hind feet and abdomen. 30, 60 and 90 minutes after the administration, the mice were put on a 55° C. hot plate and the latent time of each mouse for pain reaction was determined."}, "pain induced by formalin": {"test_system": "pain induced by formalin", "experiment": "Analgesic test with formalin", "type": "in vivo, mice", "conditions": "25 mg/kg intraperitoneal", "method": "Dolantin was intraperitoneal injected and other groups received test medication on left and right hind feet. 15 minutes after administration, 0.03 ml of 2.5% formalin was given to each mouse by subcutaneous injection on right hind foot and then the test medication was applied again. Then, the number of times of each mouse's licking its right hind foot in 15 minutes was counted."}, "[2]": {"test_system": "dimethylbenene-induced ear swelling", "experiment": "Acute ear edema of mice induced by dimethylbenene", "type": "in vivo", "conditions": "positive control applied on ear; two hours after dimethylbenene", "method": "The mice were randomly divided into 5 groups. Thirty minutes and sixty minutes after applying dimethylbenene (50 μl) to the anterior and posterior surfaces of the right ear, 25% ethanol (50 μl), the linimene solutions of anemonin (0.05, 0.5, 5 mg/ml, 50 μl) and FAA (a positive control) were applied on the same ears of mice respectively. The left ear was considered as control. Two hours after dimethylbenene application, mice were killed and both ears were removed. Circular sections were taken, using a 9 mm-diameter borer, and weighed. The increase in weight caused by the irritant was measured by subtracting the weight of the untreated left ear section from that of the treated right ear section."}, "[3]": {"test_system": "carrageenan-induced paw edema", "experiment": "Acute hind paw edema of rats induced by carrageenan", "type": "in vivo", "conditions": "for Paw edema: FAA group", "method": "The animals were injected subcutaneously with carrageenan (10 μl of 1% solution in saline) into the right paw. Anti-inflammatory properties of external anemonin were studied by applying with various liniment solution of anemonin (0.125, 0.5, 2 mg/ml, 0.5 ml) for 2 h immediately after administration of carrageenan. The rats of control group were treated with the same volume of solvent (25% ethanol). The paw volumes of rats were measured at 0, 2 h, 3 h, 4 h, 5 h, 6 h after injection of carrageenan. The paw edema was represented by subtracting the volume of the untreated same paw from that of the treated paw."}, "[4]": {"test_system": "swelling of rat's hind foot", "experiment": "Anti-swelling test on rat's hind foot (carrageenan)", "type": "in vivo, rats", "conditions": "0.025% ointment", "method": "This experiment included 4 groups of rats totaling 40 and each weighed 200-250 g: high concentration group, low concentration group (12.5 mg/25 ml, 6.25 mg/25 ml respectively), fluocinolone acetonide group, control group (the same volume of 25% ethanol). Fluocinolone acetonide was given using a 0.025% ointment, and other groups received corresponding medicament on the left and right hind feet prior to subcutaneous injection of 0.1 ml of 1% carrageenan on the metatarsus of each rat's right hind foot. Immediately after the administration of carrageenan, corresponding medicament was applied on the right hind foot. The metatarsal perimeters of right and left hind foot of each rat were measured 2, 3, 4, and 5 hours after the final administration. The difference between the metatarsal perimeters of the two feet of each rat is taken as a measure of swelling. Corresponding medicament was applied again on rat's right hind foot after each measurement."}, "skin": {"test_system": "skin", "experiment": "Skin allergic test", "conditions": "guinea pigs"}}}
{"smiles": "CCOC(=O)C1(c2ccccc2)CCN(C)CC1", "note": "[Dolantin]", "values": [{"measurement": "Increase of pain threshold (%)", "setting": "[1]; 30 min after administration", "result": 66, "unit": "%"}, {"measurement": "Latent time for pain reaction", "setting": "[1]; 30 min after administration", "result": "49.86 ± 5.23", "unit": "s"}, {"measurement": "Increase of pain threshold (%)", "setting": "[1]; 60 min after administration", "result": 80, "unit": "%"}, {"measurement": "Latent time for pain reaction", "setting": "[1]; 60 min after administration", "result": "54.29 ± 9.27", "unit": "s"}, {"measurement": "Increase of pain threshold (%)", "setting": "[1]; 90 min after administration", "result": 94, "unit": "%"}, {"measurement": "Latent time for pain reaction", "setting": "[1]; 90 min after administration", "result": "58.31 ± 11.23", "unit": "s"}, {"measurement": "Rate of inhibition(%)", "setting": "pain induced by formalin", "result": 100, "unit": "%"}, {"measurement": "Times of licking hind feet", "setting": "pain induced by formalin; 15 minutes", "result": "0.00 ± 0.00"}]}
{"smiles": "CC(=O)OCC(=O)[C@@]12OC(C)(C)O[C@@H]1C[C@H]1[C@@H]3C[C@H](F)C4=CC(=O)C=C[C@]4(C)[C@@]3(F)[C@@H](O)C[C@@]12C", "note": "[FAA, Fluocinoloni Acetonidi Acetas, reference compound]", "values": [{"measurement": "Ear swellin", "setting": "[2]", "result": "10 ± 1.8", "unit": "mg"}, {"measurement": "Paw edema", "setting": "[3]; 2 h", "result": "0.13 ± 0.05", "unit": "mL"}, {"measurement": "Paw edema", "setting": "[3]; 3 h", "result": "0.09 ± 0.07", "unit": "mL"}, {"measurement": "Paw edema", "setting": "[3]; 4 h", "result": "0.11 ± 0.08", "unit": "mL"}, {"measurement": "Paw edema", "setting": "[3]; 5 h", "result": "0.09 ± 0.07", "unit": "mL"}, {"measurement": "Paw edema", "setting": "[3]; 6 h", "result": "0.09 ± 0.11", "unit": "mL"}, {"measurement": "edema formation", "setting": "[3]; steroidal anti-inflammatory drug, positive control", "result": "significantly inhibited"}]}
{"smiles": "CC1(C)O[C@@H]2C[C@H]3[C@@H]4C[C@H](F)C5=CC(=O)C=C[C@]5(C)[C@@]4(F)[C@@H](O)C[C@]3(C)[C@]2(C(=O)CO)O1", "note": "[Fluocinolone acetonide]", "values": [{"measurement": "Degree of tumefaction (cm)", "setting": "[4]; 2 hours", "result": "0.91 ± 0.20", "unit": "cm"}, {"measurement": "Degree of tumefaction (cm)", "setting": "[4]; 3 hours", "result": "0.92 ± 0.13", "unit": "cm"}, {"measurement": "Degree of tumefaction (cm)", "setting": "[4]; 4 hours", "result": "0.90 ± 0.18", "unit": "cm"}, {"measurement": "Degree of tumefaction (cm)", "setting": "[4]; 5 hours", "result": 0.92, "unit": "cm"}]}
{"smiles": "O=[N+]([O-])c1ccc(Cl)c([N+](=O)[O-])c1", "note": "[positive control, 2,4-dinitrochlorobenzene]", "values": [{"measurement": "allergenic intensity", "setting": "skin", "result": "extreme"}, {"measurement": "allergenic rate", "setting": "skin", "result": 100, "unit": "%"}]}
